# pIC50: −log10 of the molar value.
# Experiments:
# [1] = Cytotoxicity against human NCI-H460/R cells transfected with MDR assessed as reduction in cell viability after 72 hrs by MTT assay; type: functional, cell-based; details: NCI-H460, 72 h
# HaCaT [2] = test: Induction of apoptosis in human HaCaT cells assessed as late apoptotic cells at 40 nM after 24 hrs by Annexin V/propidium iodide-staining based flow cytometry (reference value: 0.93 +/- 0.04%); type: cell-based; details: 0.04 µM
# [3] = Cytotoxicity against mouse L5178B1 cells transfected with pHa MDR1/A retrovirus assessed as reduction in cell viability after 72 hrs by MTT assay; type: functional, cell-based; details: MDR1, 72 h
# NCI-H661 = test: Cytotoxicity against human NCI-H661 cells assessed as reduction in cell viability after 72 hrs by MTT assay; type: functional, cell-based; details: NCI-H661, 72 h
# [4] = Induction of apoptosis in human HaCaT cells assessed as viable cells at 40 nM after 24 hrs by Annexin V/propidium iodide-staining based flow cytometry (reference value: 95.63 +/- 3.83%); type: cell-based; details: read-out: Activity
# HaCaT [5] = test: Induction of apoptosis in human HaCaT cells assessed as early apoptotic cells at 40 nM after 24 hrs by Annexin V/propidium iodide-staining based flow cytometry (reference value: 0.23 +/- 0.01%); type: cell-based; details: 0.04 µM
# NCI-H460 [6] = test: Induction of apoptosis in human NCI-H460 cells assessed as viable cells at 40 nM after 24 hrs by Annexin V/propidium iodide-staining based flow cytometry (reference value: 96.49 +/- 0.96%); type: functional; details: NCI-H460, 24 h, read-out: Activity
# HaCaT [7] = test: Induction of apoptosis in human HaCaT cells assessed as necrotic cells at 40 nM after 24 hrs by Annexin V/propidium iodide-staining based flow cytometry (reference value: 1.88 +/- 0.02%); type: cell-based; details: 0.04 µM
# A549 = test: Cytotoxicity against human A549 cells assessed as reduction in cell viability after 72 hrs by MTT assay; type: functional, cell-based; details: A549, 72 h
# HaCaT [8] = test: Cytotoxicity against human HaCaT cells assessed as reduction in cell viability after 72 hrs by MTT assay; type: cell-based
# NCI-H460 [9] = test: Induction of apoptosis in human NCI-H460 cells assessed as necrotic cells at 40 nM after 24 hrs by Annexin V/propidium iodide-staining based flow cytometry (reference value: 2.13 +/- 0.02%); type: functional
# SiHa = test: Cytotoxicity against human SiHa cells assessed as reduction in cell viability after 72 hrs by MTT assay; type: functional, cell-based
# NCI-H460 [10] = test: Cytotoxicity against human NCI-H460 cells assessed as reduction in cell viability after 72 hrs by MTT assay; type: functional, cell-based; details: NCI-H460, 72 h
# NCI-H460 [11] = test: Induction of apoptosis in human NCI-H460 cells assessed as early apoptotic cells at 40 nM after 24 hrs by Annexin V/propidium iodide-staining based flow cytometry (reference value: 0.45 +/- 0.01%); type: functional
# [12] = Cytotoxicity against mouse L5178 cells assessed as reduction in cell viability after 72 hrs by MTT assay; type: functional, cell-based; details: L5178, 72 h
# NCI-H460 [13] = test: Induction of apoptosis in human NCI-H460 cells assessed as late apoptotic cells at 40 nM after 24 hrs by Annexin V/propidium iodide-staining based flow cytometry (reference value: 0.93 +/- 0.04%); type: functional
smiles,measurement,setting,value
COc1cccc2c1C(=O)c1c(O)c3c(c(O)c1C2=O)C[C@@](O)(C(=O)CO)C[C@@H]3O[C@H]1C[C@H](N)[C@H](O)[C@H](C)O1 [DOXORUBICIN],pIC50,[1],5.72
same,Activity,HaCaT [2],3.04%
same,pIC50,[3],4.93
same,pIC50,NCI-H661,6.46
same,"viability at 24 h, 0.04 µM",[4],78.1%
same,Activity,HaCaT [5],11.03%
same,viability at 0.04 µM,NCI-H460 [6],85.1%
same,Activity,HaCaT [7],7.82%
same,pIC50,A549,6.26
same,pIC50,HaCaT [8],7.52
same,Activity,NCI-H460 [9],6.7%
same,pIC50,SiHa,6.12
same,pIC50,NCI-H460 [10],7.40
same,Activity,NCI-H460 [11],4.05%
same,pIC50,[12],6.39
same,Activity,NCI-H460 [13],4.11%

# Source: ChEMBL document CHEMBL4422633, “Antioxidant-Inspired Drug Discovery: Antitumor Metabolite Is Formed in Situ from a Hydroxycinnamic Acid Derivative upon Free-Radical Scavenging” (J Med Chem, 2019)
